Data from BigSolDB 2.1.

Cc1[nH]nc2cc([N+](=O)[O-])ccc12
solubility (mole fraction)
Conditions | in DMF | in THF | in acetone | in acetonitrile | in ethanol | in ethyl acetate | in n-propanol | in water
278.15 K | 0.149 | 0.0579 | 0.0251 | 0.0093 | 0.0042 | 0.016 | 0.0051 | 2.1e-05
283.15 K | 0.161 | 0.0615 | 0.0295 | 0.0109 | 0.0051 | 0.0183 | 0.0061 | 2.7e-05
288.15 K | 0.177 | 0.0671 | 0.0336 | 0.0123 | 0.0059 | 0.021 | 0.0073 | 3.6e-05
293.15 K | 0.195 | 0.0726 | 0.0382 | 0.0139 | 0.007 | 0.0232 | 0.0084 | 4.71e-05
298.15 K | 0.215 | 0.0781 | 0.0433 | 0.0156 | 0.0083 | 0.0255 | 0.0096 | 6.31e-05
303.15 K | 0.236 | 0.0845 | 0.0481 | 0.0174 | 0.01 | 0.0295 | 0.0108 | 8.01e-05
308.15 K | 0.259 | 0.0903 | 0.0538 | 0.019 | 0.012 | 0.0328 | 0.012 | 9.91e-05
313.15 K | 0.283 | 0.097 | 0.0595 | 0.0206 | 0.014 | 0.0363 | 0.0136 | 0.000123
318.15 K | 0.309 | 0.105 | 0.0661 | 0.0222 | 0.0164 | 0.0394 | 0.0155 | 0.000147
323.15 K | 0.337 | 0.113 | 0.0738 | 0.0239 | 0.0194 | 0.043 | 0.0176 | 0.000179
328.15 K | 0.371 | 0.123 | 0.0829 | 0.0254 | 0.0227 | 0.0456 | 0.0204 | 0.000218
